Columns and labels:
EP2 [1] = target: T1, EP2 (Homo sapiens, UniProt P43116); assay: EP2 flipr EC50; type: cell-based
Source text: (§1) U.S. patent application Ser. No. 11/553,143, filed on Oct. 26, 2006, incorporated by reference herein, describes the methods used to obtain the in vitro data in the table below.

EP2 [2] = target: T1, EP2; assay: EP2 cAMP EC50; type: cell-based
Source text: as §1

hEP3A = target: T2, hEP3A (Homo sapiens, UniProt P43115); assay: Other receptors functional EC50, hEP3A; type: cell-based
T2 sequence (P43115 1-390): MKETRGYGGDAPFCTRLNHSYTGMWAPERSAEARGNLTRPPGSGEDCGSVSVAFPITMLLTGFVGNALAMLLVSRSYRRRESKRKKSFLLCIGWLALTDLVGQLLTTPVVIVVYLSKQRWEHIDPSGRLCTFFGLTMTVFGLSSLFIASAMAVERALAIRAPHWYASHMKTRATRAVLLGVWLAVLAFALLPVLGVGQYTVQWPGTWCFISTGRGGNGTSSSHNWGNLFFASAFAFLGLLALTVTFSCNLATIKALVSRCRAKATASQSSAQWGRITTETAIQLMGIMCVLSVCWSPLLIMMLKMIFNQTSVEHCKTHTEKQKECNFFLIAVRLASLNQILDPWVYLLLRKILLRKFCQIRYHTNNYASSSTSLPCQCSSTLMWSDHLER
Source text: as §1

EP2 [3] = target: T1, EP2; assay: EP2 binding Ki
Source text: as §1

hDP = target: T3, hDP (Homo sapiens, UniProt Q13258); assay: Other receptors functional EC50, hDP; type: cell-based
T3 sequence (Q13258 1-359): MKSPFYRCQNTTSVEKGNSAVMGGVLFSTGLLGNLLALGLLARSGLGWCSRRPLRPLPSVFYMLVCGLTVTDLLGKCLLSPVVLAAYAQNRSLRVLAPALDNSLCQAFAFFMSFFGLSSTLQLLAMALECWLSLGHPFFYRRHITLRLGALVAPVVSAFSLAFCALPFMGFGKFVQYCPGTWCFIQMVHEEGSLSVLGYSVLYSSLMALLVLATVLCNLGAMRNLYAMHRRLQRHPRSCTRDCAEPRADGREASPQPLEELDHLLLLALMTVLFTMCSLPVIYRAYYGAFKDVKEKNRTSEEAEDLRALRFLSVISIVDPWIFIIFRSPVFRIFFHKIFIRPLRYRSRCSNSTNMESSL
Source text: as §1

hTP = target: T4, hTP (Homo sapiens, UniProt P21731); assay: Other receptors functional EC50, hTP; type: cell-based
T4 sequence (P21731 1-343): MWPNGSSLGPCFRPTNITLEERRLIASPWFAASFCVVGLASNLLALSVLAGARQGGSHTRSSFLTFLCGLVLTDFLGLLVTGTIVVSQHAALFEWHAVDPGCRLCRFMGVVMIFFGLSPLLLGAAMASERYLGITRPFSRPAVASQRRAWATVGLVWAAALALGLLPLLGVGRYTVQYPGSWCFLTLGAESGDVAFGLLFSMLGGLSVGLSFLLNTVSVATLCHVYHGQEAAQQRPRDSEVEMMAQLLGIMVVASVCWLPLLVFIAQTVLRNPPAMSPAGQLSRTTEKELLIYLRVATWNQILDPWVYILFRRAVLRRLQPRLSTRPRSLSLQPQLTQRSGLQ
Source text: as §1

T1 sequence (P43116 whole entry): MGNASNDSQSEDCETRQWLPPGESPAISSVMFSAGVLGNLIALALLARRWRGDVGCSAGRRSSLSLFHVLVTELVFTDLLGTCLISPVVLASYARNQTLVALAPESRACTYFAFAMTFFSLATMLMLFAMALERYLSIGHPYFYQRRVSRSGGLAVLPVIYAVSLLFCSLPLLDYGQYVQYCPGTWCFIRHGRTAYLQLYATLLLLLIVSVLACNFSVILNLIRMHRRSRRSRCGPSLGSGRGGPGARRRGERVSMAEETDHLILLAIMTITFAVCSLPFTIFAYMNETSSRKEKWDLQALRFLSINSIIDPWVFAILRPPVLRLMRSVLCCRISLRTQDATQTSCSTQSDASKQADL

Row | EC50 (EP2 [1]) [nM] | EC50 (EP2 [2]) [nM] | EC50 (hEP3A) [nM] | Ki (EP2 [3]) [nM] | EC50 (hDP) [nM] | EC50 (hTP) [nM] | SMILES
1 | 17 | 0.75 | 43 | 43 | 1850 | – | CCCCCC(O)c1ccc(N2C(=O)CC[C@@H]2C/C=C\c2nc(C(=O)O)cs2)cc1 (stereo partly drawn)
2 | – | 73 | 2070 | 1420 | > 10000 | – | CCCCC[C@H](O)c1ccc(N2C(=O)CC[C@@H]2C/C=C/c2ccc(C(=O)O)s2)cc1
3 | 23 | 19 | – | 824 | > 10000 | – | CCCCC[C@H](O)c1ccc(N2C(=O)CC[C@@H]2/C=C\Cc2ccc(C(=O)O)s2)cc1
4 | – | 24 | 2980 | 2180 | > 10000 | > 10000 | CCCCCC(O)c1ccc(N2C(=O)CC[C@@H]2C/C=C/c2nc(C(=O)O)cs2)cc1 (stereo partly drawn)

Source: patent US7473702B2, “Substituted gamma lactams as therapeutic agents” (Allergan, Inc., priority 2005, dated 2009)
